Data taken from ChEMBL document CHEMBL4229539, “Characterization of crystal water molecules in a high-affinity inhibitor and hematopoietic prostaglandin D synthase complex by interaction energy studies” (Bioorg Med Chem, 2018).

Target: Hematopoietic prostaglandin D synthase (Homo sapiens, UniProt O60760)
Experiment: Binding affinity to full length recombinant human N-terminal His6-tagged H-PGDS expressed in Escherichia coli BL21(DE3) by SPR analysis

Hematopoietic prostaglandin D synthase, sequence (O60760 whole entry): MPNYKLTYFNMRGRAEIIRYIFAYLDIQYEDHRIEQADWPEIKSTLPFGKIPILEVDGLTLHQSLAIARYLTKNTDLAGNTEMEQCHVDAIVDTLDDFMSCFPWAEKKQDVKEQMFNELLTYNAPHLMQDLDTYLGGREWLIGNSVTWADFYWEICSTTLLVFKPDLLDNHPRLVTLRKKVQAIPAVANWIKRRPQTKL

Kd [nM] | Structure (SMILES)
0.37 | O=C(Nc1ccc(N2CCC(C(=O)N3CCOCC3)CC2)cc1)c1cnc(Oc2ccccc2)nc1
0.14 | O=C(Nc1ccc(N2CCCC2=O)cc1)c1cnc(-c2ccccn2)nc1
